The values below come from ChEMBL document CHEMBL3612048, “Cytotoxic triterpenoid glycosides (saikosaponins) from the roots of Bupleurum chinense” (Bioorg Med Chem Lett, 2015).

Usually IC50 stands for the concentration needed to halve the response being measured.

Assay [1] in a line: Cytotoxicity against human Hep3B cells assessed as induction of cell death incubated for 2 days by MTT assay. It counts as functional, cell-based, Hep 3B2. Conditions: 48 h.
The subject of a further assay is Bcap37. As to the kind of experiment: Cytotoxicity against human Bcap37 cells assessed as induction of cell death incubated for 2 days by MTT assay. It counts as functional, cell-based. Conditions: Bcap37, 48 h.
In another assay the test system is A549. As to the kind of experiment: Cytotoxicity against human A549 cells assessed as induction of cell death incubated for 2 days by MTT assay. It counts as functional, cell-based. Conditions: A549, 48 h. For orientation: Formazan colour is commonly taken as a measure of viable cells.
Another assay has as its system HepG2. As to the kind of experiment: Cytotoxicity against human HepG2 cells assessed as induction of cell death incubated for 2 days by MTT assay. It counts as functional, cell-based. As to conditions: HepG2, 48 h.
A further assay relates to MCF7. As to the kind of experiment: Cytotoxicity against human MCF7 cells assessed as induction of cell death incubated for 2 days by MTT assay. It counts as functional, cell-based. As to conditions: MCF7, 48 h.

For the compound `C[C@H]1O[C@@H](O[C@H]2CC[C@@]3(C)[C@@H](CC[C@]4(C)[C@@H]3C=CC3=C5CC(C)(C)CC[C@]5(CO)[C@@H](O)C[C@]34C)[C@]2(C)CO)[C@H](O)[C@@H](O)[C@H]1O`, the IC50 was 19.8 µM in assay [1]; 43.2 µM in the assay on Bcap37; more than 50 µM with A549; 26.2 µM in the assay with HepG2; 42.1 µM with MCF7.
The matching figures for `C[C@H]1O[C@@H](O[C@H]2CC[C@@]3(C)[C@@H](CC[C@]4(C)[C@@H]3C=C[C@]35OC[C@@]6(CCC(C)(C)C[C@H]63)[C@H](O)C[C@]54C)[C@]2(C)CO)[C@H](O)[C@@H](O)[C@H]1O`: 20.4 µM, 32 µM, more than 50 µM, 9.34 µM and 49 µM.
For `CC(=O)O[C@@H]1[C@@H](O)[C@H](O[C@H]2[C@@H](O)[C@@H](C)O[C@@H](O[C@H]3CC[C@@]4(C)[C@@H](CC[C@]5(C)[C@@H]4C=C[C@]46OC[C@@]7(CCC(C)(C)C[C@H]74)[C@@H](O)C[C@]65C)[C@]3(C)CO)[C@@H]2O)O[C@H](CO)[C@H]1O`, in that order: 13.7 µM, 26.6 µM, 38.2 µM, 12.9 µM and 22.2 µM.
The matching figures for `CC(=O)OC[C@H]1O[C@@H](O[C@H]2[C@@H](O)[C@@H](C)O[C@@H](O[C@H]3CC[C@@]4(C)[C@@H](CC[C@]5(C)[C@@H]4C=C[C@]46OC[C@@]7(CCC(C)(C)C[C@H]74)[C@H](O)C[C@]65C)[C@]3(C)CO)[C@@H]2O)[C@H](O)[C@@H](O)[C@@H]1O`: 7.59 µM, 17.7 µM, 15.3 µM, 8.29 µM and 9.98 µM.
Take `C[C@H]1O[C@@H](O[C@H]2CC[C@@]3(C)[C@@H](CC[C@]4(C)[C@@H]3C=C[C@]35OC[C@@]6(CCC(C)(C)C[C@H]63)[C@H](O)C[C@]54C)[C@]2(C)CO)[C@H](O)[C@@H](O[C@@H]2O[C@H](CO)[C@@H](O)[C@H](O)[C@H]2O)[C@H]1O`: the IC50 in assay [1] stood at 9.61 µM; in the assay on Bcap37, 10.7 µM; in the assay with A549, 30.8 µM; in the assay with HepG2, 4.88 µM; with MCF7, 7.68 µM.
On to `C[C@H]1O[C@@H](O[C@H]2CC[C@@]3(C)[C@@H](CC[C@]4(C)[C@@H]3C=CC3=C5CC(C)(C)CC[C@]5(CO)[C@H](O)C[C@]34C)[C@]2(C)CO)[C@H](O)[C@@H](O)[C@H]1O`, for which the IC50 is 16.5 µM in assay [1]; 38.4 µM with Bcap37; more than 50 µM in the assay with A549; 18.9 µM with HepG2; 29.6 µM with MCF7.
The matching figures for `C[C@H]1O[C@@H](O[C@H]2CC[C@@]3(C)[C@@H](CC[C@]4(C)[C@@H]3C=C[C@]35OC[C@@]6(CCC(C)(C)C[C@H]63)[C@@H](O)C[C@]54C)[C@]2(C)CO)[C@H](O)[C@@H](O[C@@H]2O[C@H](CO)[C@@H](O)[C@H](O)[C@H]2O)[C@H]1O` [SAIKOSAPONIN A]: 13 µM, 14 µM, 14.5 µM, 8.34 µM and 19 µM.
The matching figures for `C[C@@H]1O[C@@H](O[C@H]2[C@H](O)[C@@H](O)[C@H](O[C@H]3CC[C@]4(C)[C@H]5C=C[C@]67OC[C@@]8(CCC(C)(C)C[C@H]86)[C@@H](O)C[C@@]7(C)[C@]5(C)CC[C@H]4C3(C)C)O[C@@H]2CO[C@@H]2O[C@H](CO)[C@@H](O)[C@H](O)[C@H]2O)[C@H](O)[C@H](O)[C@H]1O`: more than 50 µM, more than 50 µM, more than 50 µM, more than 50 µM and more than 50 µM.
For `C[C@H]1O[C@@H](O[C@H]2CC[C@]3(C)[C@H]4C=C[C@]56OC[C@@]7(CCC(C)(C)C[C@H]75)[C@@H](O)C[C@@]6(C)[C@]4(C)CC[C@H]3C2(C)C)[C@H](O)[C@@H](O[C@@H]2O[C@H](CO)[C@@H](O)[C@H](O)[C@H]2O)[C@H]1O`, in that order: 16.7 µM, 15.4 µM, more than 50 µM, 20.5 µM and 21.3 µM.
Take `CC(=O)OC[C@H]1O[C@@H](O[C@H]2[C@@H](O)[C@@H](C)O[C@@H](O[C@H]3CC[C@@]4(C)[C@@H](CC[C@]5(C)[C@@H]4C=C[C@]46OC[C@@]7(CCC(C)(C)C[C@H]74)[C@@H](O)C[C@]65C)[C@]3(C)CO)[C@@H]2O)[C@H](O)[C@@H](O)[C@@H]1O`: the IC50 in assay [1] is 16.9 µM; with Bcap37, 34.1 µM; in the assay with A549, 35.3 µM; in the assay with HepG2, 20.8 µM; in the assay on MCF7, 36.2 µM.
For `C[C@H]1O[C@@H](O[C@H]2CC[C@@]3(C)[C@@H](CC[C@]4(C)[C@@H]3C=CC3=C5CC(C)(C)CC[C@]5(CO)[C@@H](O)C[C@]34C)[C@]2(C)CO)[C@H](O)[C@@H](O[C@@H]2O[C@H](CO)[C@@H](O)[C@H](O)[C@H]2O)[C@H]1O`, in that order: more than 50 µM, more than 50 µM, more than 50 µM, more than 50 µM and more than 50 µM.
For `CO[C@@H]1C=C2[C@@H]3CC(C)(C)CC[C@]3(CO)[C@@H](O)C[C@@]2(C)[C@]2(C)CC[C@H]3[C@](C)(CO)[C@@H](O[C@@H]4O[C@H](C)[C@H](O)[C@H](O)[C@H]4O)CC[C@]3(C)[C@@H]12`, in that order: more than 50 µM, more than 50 µM, more than 50 µM, 30.2 µM and more than 50 µM.
The matching figures for `CC(=O)O[C@H]1[C@H](O[C@H]2[C@@H](O)[C@@H](C)O[C@@H](O[C@H]3CC[C@@]4(C)[C@@H](CC[C@]5(C)[C@@H]4C=C[C@]46OC[C@@]7(CCC(C)(C)C[C@H]74)[C@@H](O)C[C@]65C)[C@]3(C)CO)[C@@H]2O)O[C@H](CO)[C@@H](O)[C@@H]1O`: 5.74 µM, 17.7 µM, 38.9 µM, 20.1 µM and 30.1 µM.
For `C[C@H]1O[C@@H](O[C@H]2CC[C@@]3(C)[C@@H](CC[C@]4(C)[C@@H]3C=CC3=C5CC(C)(C)CC[C@]5(CO)C(=O)C[C@]34C)[C@]2(C)CO)[C@H](O)[C@@H](O[C@@H]2O[C@H](CO)[C@@H](O)[C@H](O)[C@H]2O)[C@H]1O`, the IC50 in assay [1] is more than 50 µM; with Bcap37, more than 50 µM; in the assay with A549, more than 50 µM; in the assay with HepG2, 40.2 µM; with MCF7, more than 50 µM.
Regarding `C[C@H]1O[C@@H](O[C@H]2CC[C@@]3(C)[C@@H](CC[C@]4(C)[C@@H]3C=C[C@]35OC[C@@]6(CCC(C)(C)C[C@H]63)[C@@H](O)C[C@]54C)[C@]2(C)CO)[C@H](O)[C@@H](O)[C@H]1O`, the IC50 in assay [1] was 19.8 µM; in the assay on Bcap37, 17.3 µM; in the assay with A549 it was more than 50 µM; with HepG2, 13.3 µM; in the assay with MCF7, 43.3 µM.
With `CO[C@@H]1C=C2C3CC(C)(C)CC[C@]3(CO)[C@H](O)C[C@@]2(C)[C@]2(C)CC[C@H]3[C@](C)(CO)[C@@H](O[C@@H]4O[C@H](C)[C@H](O)[C@H](O[C@@H]5O[C@H](CO)[C@@H](O)[C@H](O)[C@H]5O)[C@H]4O)CC[C@]3(C)[C@@H]12` (stereo partly specified), the IC50 (in assay [1]; in the assay on Bcap37; in the assay with A549; in the assay on HepG2; with MCF7) was more than 50 µM in each case.
For `CO[C@@H]1C=C2[C@@H]3CC(C)(C)CC[C@]3(CO)[C@@H](O)C[C@@]2(C)[C@]2(C)CC[C@H]3C(C)(C)[C@@H](O[C@@H]4O[C@H](C)[C@H](O)[C@H](O)[C@H]4O)CC[C@]3(C)[C@@H]12`, the IC50 (in assay [1]; in the assay with Bcap37; with A549; in the assay on HepG2; in the assay with MCF7) was more than 50 µM in each case.
As for `C[C@H]1O[C@@H](O[C@H]2CC[C@@]3(C)[C@@H](CC[C@]4(C)[C@@H]3C=C[C@]35OC[C@@]6(CCC(C)(C)C[C@H]63)C(=O)C[C@]54C)[C@]2(C)CO)[C@H](O)[C@@H](O[C@@H]2O[C@H](CO)[C@@H](O)[C@H](O)[C@H]2O)[C@H]1O`, the IC50 amounted to 7.75 µM in assay [1]; 20.2 µM in the assay with Bcap37; 34.1 µM with A549; 20.6 µM in the assay on HepG2; 24 µM with MCF7.
For `CC(=O)OC[C@@]1(C)[C@@H]2CC[C@]3(C)[C@H](C=C[C@]45OC[C@@]6(CCC(C)(C)C[C@H]64)[C@@H](O)C[C@]53C)[C@@]2(C)CC[C@@H]1O[C@@H]1O[C@H](C)[C@H](O)[C@H](O)[C@H]1O`, in that order: 24.8 µM, 26 µM, 34.1 µM, 9.76 µM and 33.5 µM.
As to `O=c1[nH]cc(F)c(=O)[nH]1` [FLUOROURACIL], in assay [1], the IC50 was found to be 1.5 µM.
Take `CC(=O)OC[C@@]1(C)[C@@H]2CC[C@]3(C)[C@H](C=C[C@]45OC[C@@]6(CCC(C)(C)C[C@H]64)[C@@H](O)C[C@]53C)[C@@]2(C)CC[C@@H]1O[C@@H]1O[C@H](C)[C@H](O)[C@H](O[C@@H]2O[C@H](CO)[C@@H](O)[C@H](O)[C@H]2O)[C@H]1O`: the IC50 (in assay [1]; in the assay on Bcap37; with A549; with HepG2; with MCF7) was more than 50 µM throughout.
